These results are taken from patent publication US11339136B2 (Novartis AG, priority 2016, dated 2022).

In the assay the target is T1, hNLRP3 (Homo sapiens, UniProt Q96P20).
T1 construct: THP-1 cells were purchased from the American Type Culture Collection; host or cells: THP-1 cells, PMA-differentiated
In words: IL-1β production in PMA-differentiated THP-1 cells stimulated with gramicidin. In kind it is cell-based. The note with it: gramicidin 5 μM, IL-1β in supernatant, Table 2. As for the experimental part:
Bioassay: IL-1β Production in PMA-Differentiated THP-1 Cells Stimulated with Gramicidin. Procedure 1:
Cell culture—THP-1 cells were purchased from the American Type Culture Collection and sub-cultured according to instructions from the supplier. Prior to experiments, cells were cultured in RPMI 1640 containing 10% heat inactivated FBS, penicillin (100 units/ml) and streptomycin (100 μg/ml), and maintained in log phase prior to experimental setup. Prior to the experiment THP-1 were treated with PMA (Phorbol 12-myristate 13-acetate) (10 μg/ml) for 24 hours. The day of the experiment the media was removed and attaching cells were treated with trypsin for 2 minutes, cells were then collected, washed with PBS (phosphate buffer saline), spin down, resuspended in 2% heat inactivated FBS with RPMI at a concentration of 1×10^6 cells/ml, and 100 ul was plated in a 96 well plate. Cells were incubated with compounds for 1 hours and then stimulated with Gramicidin (5 μM) (Enzo) for 2 hours. Cell free supernatant was collected and the production of IL-1β was evaluated by ELISA. Compounds were dissolved in dimethyl sulfoxide (DMSO) and added to the culture medium to achieve desired concentration (e.g. 100, 30, 10, 3, 1, 0.3 or 0.1 μM). A vehicle only control was run concurrently with each experiment. Final DMSO concentration was 1%.
THP-1 cells were purchased from the American Type Culture Collection and sub-cultured according to instructions from the supplier. Prior to experiments, cells were cultured in complete RPMI 1640 (containing 10% heat inactivated FBS, penicillin (100 units/ml) and streptomycin (100 μg/ml)), and maintained in log phase prior to experimental setup. Prior to the experiment THP-1 were treated with PMA (Phorbol 12-myristate 13-acetate) (20 ng/ml) for 16-18 hours. On the day of the experiment the media was removed and adherent cells were detached with trypsin for 5 minutes. Cells were then harvested, washed with complete RPMI 1640, spun down, resuspended in RPMI 1640 (containing 2% heat inactivated FBS, penicillin (100 units/ml) and streptomycin (100 μg/ml). The cells were plated in a 384-well plate at a density of 50,000 cells/well (final assay volume 50 μl). Compounds were dissolved in dimethyl sulfoxide (DMSO) and added to the culture medium to achieve desired concentration (e.g. 100, 33, 11, 3.7, 1.2, 0.41, 0.14, 0.046, 0.015, 0.0051, 0.0017 μM). Cells were incubated with compounds for 1 hour and then stimulated with gramicidin (5 μM) (Enzo) for 2 hours. Cell free supernatant was collected and the production of IL-1β was evaluated by HTRF (cisbio). A vehicle only control was run concurrently with each experiment. Final DMSO concentration was 0.38%.

T1 sequence (Q96P20 whole entry): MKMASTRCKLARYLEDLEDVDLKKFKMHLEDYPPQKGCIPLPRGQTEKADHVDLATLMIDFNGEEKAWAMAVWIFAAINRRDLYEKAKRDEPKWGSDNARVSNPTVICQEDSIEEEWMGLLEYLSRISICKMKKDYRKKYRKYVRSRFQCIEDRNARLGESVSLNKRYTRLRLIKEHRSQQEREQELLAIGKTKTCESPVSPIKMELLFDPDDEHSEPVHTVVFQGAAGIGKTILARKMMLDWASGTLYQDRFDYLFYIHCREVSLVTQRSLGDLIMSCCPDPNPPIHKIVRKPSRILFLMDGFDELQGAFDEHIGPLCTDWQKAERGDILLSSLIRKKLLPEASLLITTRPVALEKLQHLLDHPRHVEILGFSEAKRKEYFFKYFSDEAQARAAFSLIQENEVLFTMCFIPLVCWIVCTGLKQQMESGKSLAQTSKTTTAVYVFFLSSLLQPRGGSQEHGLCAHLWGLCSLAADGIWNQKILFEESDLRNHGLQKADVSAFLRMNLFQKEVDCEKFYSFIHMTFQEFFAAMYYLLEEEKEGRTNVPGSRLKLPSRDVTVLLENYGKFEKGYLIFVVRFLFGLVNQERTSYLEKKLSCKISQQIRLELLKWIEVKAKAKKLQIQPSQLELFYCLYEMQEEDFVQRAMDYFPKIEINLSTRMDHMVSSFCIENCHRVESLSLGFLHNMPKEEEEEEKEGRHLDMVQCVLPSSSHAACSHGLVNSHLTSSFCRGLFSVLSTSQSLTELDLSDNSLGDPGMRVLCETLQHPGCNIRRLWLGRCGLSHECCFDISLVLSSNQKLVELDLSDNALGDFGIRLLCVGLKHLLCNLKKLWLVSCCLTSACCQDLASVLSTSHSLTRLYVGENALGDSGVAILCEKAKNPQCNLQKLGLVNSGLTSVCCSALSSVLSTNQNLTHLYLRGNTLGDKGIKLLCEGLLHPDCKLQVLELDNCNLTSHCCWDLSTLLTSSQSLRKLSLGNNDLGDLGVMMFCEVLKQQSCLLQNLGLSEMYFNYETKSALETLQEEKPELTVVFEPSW

With `CCc1cc(Cl)cc(CC)c1NC(=O)NS(=O)(=O)c1cc(C(C)(C)O)cs1` [Compound 171, N-(4-chloro-2,6-diethylphenylcarbamoyl)-4-(2-hydroxypropan-2-yl) thiophene-2-sulfonamide], the half-inhibitory concentration (IC50) lay within 1000 to 5000 nM.

For the compound `CCc1cccc(CC)c1NC(=O)NS(=O)(=O)c1ncc(C(C)(C)O)s1` [Compound 172, N-(2,6-diethylphenylcarbamoyl)-5-(2-hydroxypropan-2-yl)thiazole-2-sulfonamide], the IC50 is 1000 to 5000 nM.

Consider `CCc1cccc(CC)c1NC(=O)NS(=O)(=O)c1cc(C(C)(C)O)cs1` [Compound 173, N-(2,6-diethylphenylcarbamoyl)-4-(2-hydroxypropan-2-yl)thiophene-2-sulfonamide], for which the IC50 was 15000 to 35000 nM.

Turning to `CC(C)c1ccc2c(c1NC(=O)NS(=O)(=O)c1cc(C(C)(C)O)cs1)CCC2` [Compound 175, 4-(2-hydroxypropan-2-yl)-N-(5-isopropyl-2,3-dihydro-1H-inden-4-ylcarbamoyl) thiophene-2-sulfonamide], the half-maximal inhibitory concentration (IC50) lay in the range of 15000 to 35000 nM.

`CC(C)(O)c1ccc(S(=O)(=O)NC(=O)Nc2c3c(c(F)c4c2CCC4)CCC3)s1` [Compound 176, N-(8-fluoro-1,2,3,5,6,7-hexahydros-indacen-4-ylcarbamoyl)-5-(2-hydroxypropan-2-yl) thiophene-2-sulfonamide] gave an IC50 below 1000 nM.

Regarding `N#Cc1c2c(c(NC(=O)NS(=O)(=O)c3ccc(C4(O)CC4)s3)c3c1CCC3)CCC2` [Compound 178, N-(8-cyano-1,2,3,5,6,7-hexahydros-indacen-4-ylcarbamoyl)-5-(1-hydroxycyclopropyl) thiophene-2-sulfonamide], the 50% inhibitory concentration (IC50) lay in the range of 1000 to 5000 nM.

Compound `CC(C)c1ccc(Cl)c(C(C)C)c1NC(=O)NS(=O)(=O)c1ncc(C(C)(C)O)s1` [Compound 179, N-(3-chloro-2,6-diisopropylphenylcarbamoyl)-5-(2-hydroxypropan-2-yl)thiazole-2-sulfonamide] yielded a 50% inhibitory concentration (IC50) of 1000 to 5000 nM.

Turning to `CC(C)c1ccc(Cl)c(C(C)C)c1NC(=O)NS(=O)(=O)c1cc(C(C)(C)O)cs1` [Compound 180, N-(3-chloro-2,6-diisopropylphenylcarbamoyl)-4-(2-hydroxypropan-2-yl)thiophene-2-sulfonamide], the IC50 was below 1000 nM.

Compound `CC(C)c1ccc(Cl)c(C(C)C)c1NC(=O)NS(=O)(=O)c1cc(C2(O)CC2)co1` [Compound 181, N-(3-chloro-2,6-diisopropylphenylcarbamoyl)-4-(1-hydroxycyclopropyl) furan-2-sulfonamide] registered an IC50 below 1000 nM.

As to `COc1ccc2c(c1NC(=O)NS(=O)(=O)c1ncc(C(C)(C)O)s1)CCC2` [Compound 182, 5-(2-hydroxypropan-2-yl)-N-(5-methoxy-2,3-dihydro-1H-inden-4-ylcarbamoyl)thiazole-2-sulfonamide], the IC50 was 1000 to 5000 nM.

As for `O=C(Nc1c2c(cc3c1CCC3)CCC2)NS(=O)(=O)c1ncc(C2(O)CCCC2)s1` [Compound 183], the IC50 was below 1000 nM.

Regarding `CC(C)c1cc(C#N)cc(C(C)C)c1NC(=O)NS(=O)(=O)c1ccc(C(C)(C)O)s1` [Compound 184, N-(4-cyano-2,6-diisopropylphenylcarbamoyl)-5-(2-hydroxypropan-2-yl) thiophene-2-sulfonamide], the concentration for half-maximal inhibition (IC50) is below 1000 nM.

Take `CC(C)c1ccc(F)c(C(C)C)c1NC(=O)NS(=O)(=O)c1ccc(C(C)(C)O)s1` [Compound 185, N-(3-fluoro-2,6-diisopropylphenylcarbamoyl)-5-(2-hydroxypropan-2-yl)thiophene-2-sulfonamide]: the IC50 was 1000 to 5000 nM.

In turn, `CC(C)c1cccc(C(C)C)c1NC(=O)NS(=O)(=O)c1ccc(C(C)(C)O)s1` [Compound 188, N-(2,6-diisopropylphenylcarbamoyl)-5-(2-hydroxypropan-2-yl) thiophene-2-sulfonamide] showed an IC50 of 1000 to 5000 nM.

The compound `CC(C)(O)c1ccc(S(=O)(=O)NC(=O)Nc2c3c(c(Cl)c4c2CCC4)CCC3)s1` [Compound 189, N-(8-chloro-1,2,3,5,6,7-hexahydros-indacen-4-ylcarbamoyl)-5-(2-hydroxypropan-2-yl) thiophene-2-sulfonamide] came in with an IC50 below 1000 nM.

Consider `CC(C)(O)c1cnc(S(=O)(=O)NC(=O)Nc2cccc3c2CCC3)s1` [Compound 190, N-(2,3-dihydro-1H-inden-4-ylcarbamoyl)-5-(2-hydroxypropan-2-yl)thiazole-2-sulfonamide], for which the IC50 was in the range of 1000 to 5000 nM.

On to `CC(C)(O)c1csc(S(=O)(=O)NC(=O)Nc2cccc3c2CCC3)c1` [Compound 191, N-(2,3-dihydro-1H-inden-4-ylcarbamoyl)-4-(2-hydroxypropan-2-yl) thiophene-2-sulfonamide], for which the IC50 fell in the range of 1000 to 5000 nM.

`O=C(Nc1cccc2c1CCC2)NS(=O)(=O)c1cc(C2(O)CC2)co1` [Compound 192, N-(2,3-dihydro-1H-inden-4-ylcarbamoyl)-4-(1-hydroxycyclopropyl) furan-2-sulfonamide] registered an IC50 of 1000 to 5000 nM.

As for `O=C(Nc1c2c(cc3c1CCC3)CCC2)NS(=O)(=O)c1ncc(C2(O)CCCCC2)s1` [Compound 193, N-(1,2,3,5,6,7-hexahydros-indacen-4-ylcarbamoyl)-5-(1-hydroxycyclohexyl) thiazole-2-sulfonamide], the IC50 is 1000 to 5000 nM.

`CC(C)c1cc(C#N)cc(C(C)C)c1NC(=O)NS(=O)(=O)c1ccc(C2(O)CC2)s1` [Compound 194, N-(4-cyano-2,6-diisopropylphenylcarbamoyl)-5-(1-hydroxycyclopropyl) thiophene-2-sulfonamide] had an IC50 of 1000 to 5000 nM.

The compound `CC(C)c1ccc(F)c(C(C)C)c1NC(=O)NS(=O)(=O)c1ccc(C2(O)CC2)s1` [Compound 195, N-(3-fluoro-2,6-diisopropylphenylcarbamoyl)-5-(1-hydroxycyclopropyl) thiophene-2-sulfonamide] came in with an IC50 of 1000 to 5000 nM.

Regarding `CC(C)c1cc(Cl)cc(C(C)C)c1NC(=O)NS(=O)(=O)c1ccc(C2(O)CC2)s1` [Compound 196, N-(4-chloro-2,6-diisopropylphenylcarbamoyl)-5-(1-hydroxycyclopropyl) thiophene-2-sulfonamide], the IC50 was below 1000 nM.

In turn, `O=C(Nc1c2c(cc3c1CCC3)CCC2)NS(=O)(=O)c1ncc(C2(O)CCC2)s1` [Compound 197, N-(1,2,3,5,6,7-hexahydros-indacen-4-ylcarbamoyl)-5-(1-hydroxycyclo-butyl)thiazole-2-sulfonamide] registered an IC50 below 1000 nM.

In the case of `CC(C)c1cc(F)cc(C(C)C)c1NC(=O)NS(=O)(=O)c1ccc(C2(O)CC2)s1` [Compound 198, N-(4-fluoro-2,6-diisopropylphenylcarbamoyl)-5-(1-hydroxycyclopropyl) thiophene-2-sulfonamide], the IC50 is below 1000 nM.

Consider `O=C(Nc1c2c(c(Cl)c3c1CCC3)CCC2)NS(=O)(=O)c1ccc(C2(O)CC2)s1` [Compound 199, N-(8-chloro-1,2,3,5,6,7-hexahydros-indacen-4-ylcarbamoyl)-5-(1-hydroxycyclopropyl) thiophene-2-sulfonamide], for which the IC50 was 1000 to 5000 nM.

`O=C(Nc1c2c(c(F)c3c1CCC3)CCC2)NS(=O)(=O)c1ccc(C2(O)CC2)s1` [Compound 200]: the IC50 is below 1000 nM.

As to `CC(C)c1cccc(C(C)C)c1NC(=O)NS(=O)(=O)c1ccc(C2(O)CC2)s1` [Compound 201, N-(2,6-diisopropylphenylcarbamoyl)-5-(1-hydroxycyclopropyl) thiophene-2-sulfonamide], the 50% inhibitory concentration (IC50) is 1000 to 5000 nM.

`O=C(Nc1c2c(cc3c1CCC3)CCC2)NS(=O)(=O)c1ccc(C2(O)CC2)s1` [Compound 202, N-(1,2,3,5,6,7-hexahydros-indacen-4-ylcarbamoyl)-5-(1-hydroxycyclopropyl) thiophene-2-sulfonamide] yielded an IC50 below 1000 nM.

Take `CC(C)c1cc(F)cc(C(C)C)c1NC(=O)NS(=O)(=O)c1cc(C2(O)CC2)cs1` [Compound 204, N-(4-fluoro-2,6-diisopropylphenyl-carbamoyl)-4-(1-hydroxycyclo-propyl)thiophene-2-sulfonamide]: the half-maximal inhibitory concentration (IC50) was below 1000 nM.

Compound `CC(C)c1cc(F)cc(C(C)C)c1NC(=O)NS(=O)(=O)c1cc(C2(O)CC2)co1` [Compound 205, N-(4-fluoro-2,6-diisopropylphenyl-carbamoyl)-4-(1-hydroxycyclo-propyl)furan-2-sulfonamide] had an IC50 below 1000 nM.

For orientation: IC50 means the midpoint of a concentration-inhibition curve. A high value points to a need for much substance.
